Data: EP0083750A1, “Antimycotic azolyl butanols” (BAYER AG, priority 1981, dated 1983)
≈ marks a conversion by molar mass, not a printed value.

Tests used:
[1] = test system: Dermatophyten, Schimmelpilze, Hefen; assay: Antimycotic in-vitro activity, serial dilution test, overall comparison with prior art; format: cell-based; settings: in-vitro Reihenverdünnungstest
Experimental: (§1) Versuchsbeschreibung: • Die in-vitro-Prüfungen wurden im Reihenverdünnungstest mit Keiminokula von durchschnittlich 5 x 10^4 Keimen/ml Substrat durchgeführt. Als Nährmedium dienten • a) für Dermatophyten und Schimmelpilze: Sabourand's milieu d'epreuve • b) für Hefen: • Fleischextrakt-Traubenzucker-Bouillon.
(§2) Die Bebrütungstemperatur betrug 20°C, die Bebrütungsdauer lag bei 24 bis 96 Stunden bei Hefen und 96 Stunden bei Dermatophyten und Schimmelpilzen.

[2] = test system: Trichophyton von mentagrophytes; assay: Antimycotic in-vivo activity (local) in experimental guinea pig trichophytosis; settings: Meerschweinchen-Trichophytie, lokal
Excerpt: Antimikrobielle in-vivo-Wirksamkeit (lokal) am Modell der experimentellen Meerschweinchen-Trichophytie
Weiße Mäuse der Rasse Pirbright-white wurden auf dem geschorenen, nicht skarifizierten Rücken mit einer Mikro-und Makrokonidien-Suspension von Trichophyton von mentagrophytes infiziert.
Die infizierten Tieren wurden, beginnend mit dem 3. Tag p.i., 1 x täglich mit einer 15%-igen Lösung der erfindungsgemäßen Präparate (in Dimethylsulfoxid : Glycerin = 1 : 4) lokal behandelt.
Bei unbehandelten Tieren entwickelte sich innerhalb 12 Tagen p.i. das typische Bild einer Dermatophytose mit Rötung, Schuppung und Haarausfall bis zum totalen Integument-Defekt an der Infektionsstelle.

[3] = test system: Microsporum canis; assay: Antimycotic in-vitro activity, serial dilution test (MIC); format: cell-based; settings: 96 h, Reihenverdünnungstest, 5 x 10^4 Keimen/ml Substrat, Sabourand's milieu d'epreuve, 20°C, 96 Stunden, read-out: MHK-Werte in γ/ml Nährmedium, Microsporum canis
Experimental: as §1, §2

[4] = test system: Aspergillus fumig.; assay: as above; format: cell-based; settings: 96 h, Reihenverdünnungstest, 5 x 10^4 Keimen/ml Substrat, Sabourand's milieu d'epreuve, 20°C, 96 Stunden, read-out: MHK-Werte in γ/ml Nährmedium, Aspergillus fumig.
Experimental: as §1, §2

[5] = test system: Candida albicans; assay: as above; format: cell-based; settings: Reihenverdünnungstest, 5 x 10^4 Keimen/ml Substrat, Fleischextrakt-Traubenzucker-Bouillon, 20°C, 24 bis 96 Stunden, read-out: MHK-Werte in γ/ml Nährmedium, Candida albicans
Experimental: as §1, §2

[6] = test system: Trichophyton mentagr.; assay: as above; format: cell-based; settings: 96 h, Reihenverdünnungstest, 5 x 10^4 Keimen/ml Substrat, Sabourand's milieu d'epreuve, 20°C, 96 Stunden, read-out: MHK-Werte in γ/ml Nährmedium, Trichophyton mentagr.
Experimental: as §1, §2

[7] = test system: Torulopsis glabrata; assay: as above; format: cell-based; settings: Nakaseomyces glabratus; Reihenverdünnungstest, 5 x 10^4 Keimen/ml Substrat, Fleischextrakt-Traubenzucker-Bouillon, 20°C, 24 bis 96 Stunden; read-out: MHK-Werte in γ/ml Nährmedium, Torulopsis glabrata
Experimental: as §1, §2

[8] = test system: Candida-Zellen; assay: Antimycotic in-vivo activity (oral) in mouse candidosis; design: species or system Mäuse vom Typ SPF-CF1; key to Wirkung (Überlebende am 6.Tag p.i.): +++++: = sehr gute Wirkung = 90 % Überlebende am 6.Tag p.i.; ++++: = gute Wirkung = 80 % Überlebende am 6.Tag p.i.; +++: = Wirkung = 60 % Überlebende am 6.Tag p.i.; ++: = schwache Wirkung = 40 % Überlebende am 6.Tag p.i.; +: = Spur Wirkung = unter 40 % Überlebende am 6. Tag; k.W.: = keine Wirkung; settings: for Wirkung (Überlebende am 6.Tag p.i.): Mäuse SPF-CF1, intravenös infiziert mit 1 - 2 x 10^6 Candida-Zellen, jeweils 50 - 100 mg/kg oral, 1 Stunde vor und 7 Stunden nach Infektion; for Wirkung im Vergleich zu den bekannten Verbindungen (A) und (B): Mäusecandidose, oral
Experimental: Antimykotische in-vivo-Wirksamkeit (oral) bei Mäusecandidose
Mäuse vom Typ SPF-CF1 wurden intravenös mit 1 - 2 x 10^6 logarithmisch wachsenden Candida-Zellen, die in physiologischer Kochsalzlösung suspendiert werden, infiziert. Eine Stunde vor und sieben Stunden nach der Infektion werden die Tiere mit jeweils 50 - 100 mg/kg Körpergewicht der Präparate oral behandelt.
Unbehandelte Tiere starben 3 bis 6 Tage post infektionem. Die Überlebensrate am 6. Tag post infektionem betrug bei unbehandelten Kontrolltieren etwa 5 %.

MIC [3] [µg/mL]	MIC [4] [µg/mL]	MIC [5] [µg/mL]	MIC [6] [µg/mL]	MIC [7] [µg/mL]	SMILES	antimykotische Wirkung im Vergleich zu den bekannten Verbindungen (A) und (B) [1]	Wirkung [2]	Wirkung (Überlebende am 6.Tag p.i.) [8]	Wirkung im Vergleich zu den bekannten Verbindungen (A) und (B) [8]
< 1	4 (≈ 10.1 µM)	< 1	< 1	< 1	CCCCC(C(O)C(C)(C)COc1ccc(Br)cc1)n1cncn1 (centres unmarked) [Beispiel 46]	bessere antimykotische Wirkung	gute bis sehr gute Wirkung	++++ (= gute Wirkung = 80 % Überlebende am 6.Tag p.i.)	bessere Wirkung
16 (≈ 43.4 µM)	8 (≈ 21.7 µM)	< 1	< 1	8 (≈ 21.7 µM)	CC(C)(Cc1ccc(Cl)cc1)C(O)C(Cc1ccccc1)n1ccnc1 (centres unmarked) [Beispiel 128]	bessere antimykotische Wirkung		++++ (= gute Wirkung = 80 % Überlebende am 6.Tag p.i.)	bessere Wirkung
8 (≈ 19.2 µM)	16 (≈ 38.5 µM)	< 1	< 1	2 (≈ 4.81 µM)	COc1cccc(CC(C(O)C(C)(C)COc2ccc(Cl)cc2)n2cncn2)c1 (centres unmarked) [Beispiel 87]	bessere antimykotische Wirkung		++ (= schwache Wirkung = 40 % Überlebende am 6.Tag p.i.)	bessere Wirkung
8 (≈ 20.3 µM)	4 (≈ 10.2 µM)	8 (≈ 20.3 µM)	< 1	32 (≈ 81.3 µM)	CCCCC(C(O)C(C)(C)COc1ccc(-c2ccccc2)cc1)n1cncn1 (centres unmarked) [Beispiel 100]	bessere antimykotische Wirkung		+++ (= Wirkung = 60 % Überlebende am 6.Tag p.i.)	bessere Wirkung
2 (≈ 4.18 µM)	64 (≈ 134 µM)	< 1	4 (≈ 8.36 µM)	64 (≈ 134 µM)	CCOC(=O)c1ccc(OC(C)(C)C(O)C(Cc2ccc(Cl)cc2Cl)n2cncn2)cc1 (centres unmarked) [Beispiel 64]	bessere antimykotische Wirkung			

The remaining lines, values behind:

SMILES	MIC [3] [µg/mL]	MIC [4] [µg/mL]	MIC [5] [µg/mL]	MIC [6] [µg/mL]	MIC [7] [µg/mL]	antimykotische Wirkung im Vergleich zu den bekannten Verbindungen (A) und (B) [1]	Wirkung [2]	Wirkung (Überlebende am 6.Tag p.i.) [8]	Wirkung im Vergleich zu den bekannten Verbindungen (A) und (B) [8]
CC(C(O)c1ccc(Cl)cc1)n1cncn1 (centres unmarked) [(A), reference compound]			> 64	> 64				k.W.	
CC(C)(COc1ccc(Cl)cc1)C(O)C(Cc1ccc(Cl)cc1Cl)n1cncn1 (centres unmarked) [Beispiel 11]	< 1	64 (≈ 141 µM)	< 1	< 1	< 1	bessere antimykotische Wirkung	gute bis sehr gute Wirkung	++ (= schwache Wirkung = 40 % Überlebende am 6.Tag p.i.)	bessere Wirkung
CC(C)(COc1ccc(Cl)cc1)C(O)C(CC1CCCCC1)n1ccnc1 (centres unmarked) [Beispiel 20]	4 (≈ 10.2 µM)	4 (≈ 10.2 µM)	< 1	< 1	8 (≈ 20.5 µM)	bessere antimykotische Wirkung	gute bis sehr gute Wirkung	++++ (= gute Wirkung = 80 % Überlebende am 6.Tag p.i.)	bessere Wirkung
OC(Cn1cncn1)c1ccc(-c2ccc(Cl)cc2)cc1 (centres unmarked) [(B), reference compound]	> 64	> 64	> 64	4 (≈ 13.3 µM)				k.W.	
CC(C)(COc1ccc(Cl)cc1)C(O)C(CC1CCCCC1)n1cncn1 (centres unmarked) [Beispiel 2, 1-(4-Chlorphenoxy)-5-cyclohexyl-2,2-dimethyl-4-(1,2,4-triazol-1-yl)-pentan-3-ol]	2 (≈ 5.1 µM)	2 (≈ 5.1 µM)	< 1	< 1	< 1	bessere antimykotische Wirkung			
CC(C)(COc1ccc(Br)cc1)C(O)C(CCOc1ccc(Cl)cc1Cl)n1cncn1 (centres unmarked) [Beispiel 45]	8 (≈ 15.1 µM)	32 (≈ 60.5 µM)	< 1	< 1	4 (≈ 7.56 µM)	bessere antimykotische Wirkung			
CC(C)(Cc1ccccc1)C(O)C(Cc1ccc(Cl)cc1Cl)n1cncn1 (centres unmarked) [Beispiel 83]	8 (≈ 19.8 µM)	32 (≈ 79.1 µM)	< 1	< 1	4 (≈ 9.89 µM)	bessere antimykotische Wirkung			
